According to the supplement of paper PMC10307832:

Columns and labels:
Test in all cases: relative viability (nuclei count vs DMSO), 5 days (fraction); higher = more cells survive
[1] = compound: COc1cc2ncn(-c3cc(OCc4ccccc4C(F)(F)F)c(C(N)=O)s3)c2cc1OC + C[C@]1(O)C[C@@H](c2nc(-c3ccc4ccc(-c5ccccc5)nc4c3)c3c(N)nccn32)C1 [Linsitinib] (partner 1 µM)
In short: (§1)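 One day after seeding in 1536-well plates, lung cancer cell lines were dosed by pin tool. Dosing was either single-drug or a fixed anchor-drug dose plus five library-drug doses (not always all listed) in √10 steps. After 5 days, nuclei were stained in one fix-and-stain step and counted on 4× images, and relative viability is the nuclei count of treated wells over that of vehicle wells, given as the median of duplicate plates.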

[2] = compound: COc1cc2ncn(-c3cc(OCc4ccccc4C(F)(F)F)c(C(N)=O)s3)c2cc1OC + Nc1nc2[nH]cc(CCc3ccc(C(=O)N[C@@H](CCC(=O)O)C(=O)O)cc3)c2c(=O)[nH]1 [Pemetrexed] (partner 0.2 µM)
In short: as §1

[3] = compound: COc1cc2ncn(-c3cc(OCc4ccccc4C(F)(F)F)c(C(N)=O)s3)c2cc1OC + O=C(CCCCCCC(=O)Nc1ccccc1)NO [Vorinostat] (partner 1 µM)
In short: as §1

[4] = compound: COc1cc2ncn(-c3cc(OCc4ccccc4C(F)(F)F)c(C(N)=O)s3)c2cc1OC + CC1(C)CCC(c2ccc(Cl)cc2)=C(CN2CCN(c3ccc(C(=O)NS(=O)(=O)c4ccc(N[C@H](CCN5CCOCC5)CSc5ccccc5)c(S(=O)(=O)C(F)(F)F)c4)cc3)CC2)C1 [Navitoclax] (partner 0.5 µM)
In short: as §1

Cell Line | relative viability ([1]; first compound 0.05 µM) | relative viability ([1]; first compound 0.1581 µM) | relative viability ([1]; first compound 0.5 µM) | relative viability ([1]; first compound 1.581 µM) | relative viability ([1]; first compound 5 µM) | relative viability ([2]; first compound 0.05 µM) | relative viability ([2]; first compound 0.1581 µM) | relative viability ([2]; first compound 0.5 µM) | relative viability ([2]; first compound 1.581 µM) | relative viability ([2]; first compound 5 µM) | relative viability ([3]; first compound 0.05 µM) | relative viability ([3]; first compound 0.1581 µM) | relative viability ([3]; first compound 0.5 µM) | relative viability ([3]; first compound 1.581 µM) | relative viability ([3]; first compound 5 µM) | relative viability ([4]; first compound 0.05 µM) | relative viability ([4]; first compound 0.1581 µM) | relative viability ([4]; first compound 0.5 µM) | relative viability ([4]; first compound 1.581 µM) | relative viability ([4]; first compound 5 µM)
NCI-H358 | 0.693 | 0.678 | 0.349 | 0.155 | 0.141 | 0.196 | 0.167 | 0.192 | 0.102 | 0.0855 | 0.589 | 0.541 | 0.0993 | 0.0786 | 0.0711 | – | – | – | – | –
NCI-H522 | – | – | – | – | – | 0.965 | 0.842 | 0.742 | 0.812 | 0.377 | 0.962 | 1.1 | 0.733 | 0.292 | 0.237 | – | – | – | – | –
NCI-H650 | 0.896 | 1.17 | 0.505 | 0.118 | 0.171 | 1.01 | 0.923 | 0.768 | 0.261 | 0.458 | 0.425 | 0.438 | 0.279 | 0.137 | 0.143 | – | – | – | – | –
NCI-H661 | 0.513 | 0.526 | 0.39 | 0.247 | 0.174 | 0.989 | 0.819 | 0.482 | 0.303 | 0.269 | 0.843 | 0.753 | 0.293 | 0.269 | 0.223 | – | – | – | – | –
NCI-H727 | 0.321 | 0.283 | 0.166 | 0.186 | 0.305 | – | – | – | – | – | 1.28 | 1.14 | 0.673 | 0.579 | 0.591 | 0.457 | 0.618 | 0.464 | 0.166 | 0.185
NCI-H1563 | 1.22 | 1.18 | 1.22 | 1.21 | 0.799 | 0.833 | 0.654 | 0.707 | 0.71 | 0.365 | – | – | – | – | – | – | – | – | – | –
NCI-H1648 | – | – | – | – | – | 0.855 | 0.805 | 0.513 | 0.243 | 0.219 | 0.37 | 0.523 | 0.203 | 0.267 | 0.186 | – | – | – | – | –
NCI-H1650 | – | – | – | – | – | 0.421 | 0.36 | 0.333 | 0.217 | 0.207 | 0.484 | 0.555 | 0.36 | 0.154 | 0.133 | 1.29 | 1.2 | 0.471 | 0.153 | 0.121
NCI-H1703 | 0.721 | 0.992 | 0.205 | 0.143 | 0.078 | – | – | – | – | – | – | – | – | – | – | 1.38 | 1.28 | 0.509 | 0.124 | 0.0953
NCI-H1792 | 0.517 | 0.531 | 0.301 | 0.216 | 0.148 | 0.683 | 0.688 | 0.0781 | 0.0502 | 0.0387 | – | – | – | – | – | 0.633 | 0.627 | 0.604 | 0.188 | 0.13
NCI-H2170 | – | – | – | – | – | 0.251 | 0.268 | 0.26 | 0.184 | 0.162 | 0.834 | 0.725 | 0.386 | 0.128 | 0.125 | 0.539 | 0.492 | 0.202 | 0.168 | 0.162
NCI-H2342 | – | – | – | – | – | 0.773 | 0.782 | 0.56 | 0.518 | 0.655 | 0.917 | 0.744 | 0.595 | 0.693 | 0.527 | – | – | – | – | –
SW 900 | – | – | – | – | – | 0.453 | 0.544 | 0.408 | 0.254 | 0.187 | 0.483 | 0.417 | 0.416 | 0.287 | 0.154 | – | – | – | – | –
